Measurements reported in patent publication US6506789B2, “Methods for the treatment of itching comprising administering PGD2 receptor antagonist” (Shionogi & Co., Ltd., priority 1998, dated 2003).
Marks after values point to notes of the source that are not given here.

Experiments:
PGD2 receptor = target: T1, PGD2 receptor (Homo sapiens, UniProt Q13258); assay: Binding to PGD2 receptor ([3H]PGD2, human platelet membrane fraction); conditions: 5 nM [3H]PGD2, 4° C., 90 min, read-out: IC50 (concentration required for 50% inhibition of [3H]PGD2 binding)
T1 construct: The platelets mere homogenized using a homogenizer (Ultra-Turrax) followed by centrifugation 3 times at 20,000 rpm, 10 min at 4° C. to obtain a platelet membrane fraction; from tissue; host or cells: human platelets from venous blood of healthy volunteers (membrane fraction)
T1 sequence (Q13258 1-359): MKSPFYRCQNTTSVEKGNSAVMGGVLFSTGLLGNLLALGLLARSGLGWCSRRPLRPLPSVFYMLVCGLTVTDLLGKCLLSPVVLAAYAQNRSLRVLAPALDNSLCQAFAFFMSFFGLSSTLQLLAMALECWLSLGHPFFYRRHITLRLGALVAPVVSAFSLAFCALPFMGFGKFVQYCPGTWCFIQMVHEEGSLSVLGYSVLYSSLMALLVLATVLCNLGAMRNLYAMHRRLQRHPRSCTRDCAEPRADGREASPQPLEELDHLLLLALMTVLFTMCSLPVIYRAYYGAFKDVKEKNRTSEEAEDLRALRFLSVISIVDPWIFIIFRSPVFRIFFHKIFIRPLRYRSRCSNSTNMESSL
Protocol: (1) Preparation of Human Platelet Membrane Fraction
Blood sample was obtained using a plastic syringe containing 3.8% sodium citrate from the vein of healthy volunteers (adult male and female), put into a plastic test tube and mixed gently by rotation. The sample was then centrifuged at 1800 rpm, 10 min at room temperature and the supernatant containing PRP (platelet-rich plasma) was collected. The PRP was re-centrifuged at 2300 rpm, 22 min at room temperature to obtain platelets. The platelets mere homogenized using a homogenizer (Ultra-Turrax) followed by centrifugation 3 times at 20,000 rpm, 10 min at 4° C. to obtain a platelet membrane fraction. After protein determination, the membrane fraction was adjusted to 2 mg/ml and preserved in a refrigerator at −80° C. until use.
(2) Binding to PGD2 Receptor
To a binding-reaction solution (50 mM Tris/HCl, pH 7.4, 5 mM MgCl2) (0.2 ml) were added the human platelet membrane fraction (0.1 mg) and 5 nM [^3H]PGD2 (115 Ci/mmol). After reacting at 4° C. for 90 min, the mixture was filtered through a glass fiber filter paper and washed several times with cooled saline, to measure the radioactivity retained on the filter paper. The specific binding was calculated by subtracting the non-specific binding (the binding in the presence of 10 μM PGD2) from the total binding. The inhibitory activity of each compound was expressed as the concentration required for 50% inhibition (IC50), which was determined by depicting a substitution curve by plotting the binding ratio (%) in the presence of each compound, where the binding ratio in the absence of a test compound is 100%.

PGD2-induced itching = conditions: guinea pig; J. Pharmacol. Exp. Ther., 279, 137-142, 1996; cited from earlier work
[1] = tested on: itching caused by antigens; conditions: J. Pharmacol. Exp. Ther., 279, 137-142, 1996; cited from earlier work
[2] = tested on: Compound 48/80-induced scratching behavior; assay: Mouse pruritus model: compound 48/80-induced scratching behavior; assay type: in vivo
Protocol: Investigation on Itch-Related Scratching Behavior in Mouse Pruritus Model: Effect on Compound 48/80-Induced Scratching Behavior Compound 48/80 (10 μg/site, Sigma), a non-immunological mast cell activator, was dissolved in physiological saline and subcutaneously injected into the rostral part of the back of female C57BL mice (8-12 weeks of age, Charles River Japan Inc.). […] Mice usually scratched several times successively in one behavior and a series of scratching was counted as one incidence. Compound Treatment Compound (IA-a-5), suspended in 0.5% methylcellulose, was orally administered 1 hour before the injection of compound 48/80 at a dose of 300 mg/kg. As a control, mice were treated with 0.5% methlycellulose. Results were shown in Table 16. *: P<0.05 versus control (Wilcoxon test).

[3] = tested on: Antigen-induced scratching behavior; assay: Mouse pruritus model: antigen-induced scratching behavior; assay type: in vivo; conditions: female C57BL mice, observed 15 minutes, n = 7, control 51.6 ± 5.3
Protocol: Investigation on Itch-Related Scratching Behavior in Mouse Pruritus Model: Effect on Antigen-Induced Scratching Behavior 50 μl of diluted anti-benzylpenicilloyl (BPO) IgE monoclonal antibody was intradermally injected to the rostral part of the back skin of female C57BL (Table 17, 8-12 weeks of age, Charles River Japan Inc.) or male DS-Nh (Table 18, 7-8 weeks of age, Aburahi Laboratories, Shionogi & Co., Ltd.) mice. Twenty-four hours later, scratching behavior was induced by intravenously injection of physiological saline containing 1 mg of BPO-guinea pig serum albumin. […] In Table 17, the compound was treated in the same manner described in above 1). In Table 18, the compound were dissolved in physiological saline and intraperitoneally injected 30 minutes before antigen challenge. *: P<0.05, **: P<0.01 versus control (Dunnett's test).

SMILES	IC50 (PGD2 receptor)	further results
O=C(O)CCCCCCC1C(=O)N(Cc2ccccc2)C(=O)N1NCC(O)C1CCCCC1 (stereo not drawn) [BWA868C]	–	inhibition of itching induced by instillation of PGD2 (PGD2-induced itching): inhibited; inhibition of itching caused by antigens [1]: can not inhibit
CC1(C)[C@H]2C[C@H](C/C=C\CCCC(=O)O)[C@@H](NC(=O)c3csc4ccc(O)cc34)[C@@H]1C2 [IA-a-5, (5Z)-7-[(1R,2R,3S,5S)-2-(5-hydroxybenzo[b]thiophen-3-yl-carbonylamino)-6,6-dimethylbicyclo[3.1.1]hept-3-yl]-5-heptenoic acid]	–	scratching caused by skin itching derived from the activation of mast cell, compared with the control group ([2]; Experiment 2, summary in words): reduced; Mean ± S.E. (Number of scratching) ([2]; female C57BL mice, 300 mg/kg orally 1 hour before compound 48/80, observed 30 minutes, n = 10, control 122.2 ± 12.7): 81.8 ± 17.9*; Mean ± S.E. (Number of scratching) ([3]; 100 mg/kg orally): 48.4 ± 12.4; Mean ± S.E. (Number of scratching) ([3]; 300 mg/kg orally): 19.6 ± 6.5*
CC1(C)[C@H]2C[C@@H](C/C=C\CCCC(=O)O)[C@@H](NC(=O)c3csc4ccc(O)cc34)[C@@H]1C2 [IA-c-1]	28 nM	–
CC1(C)[C@H]2C[C@H](NC(=O)c3csc4ccc(F)cc34)[C@@H](C/C=C\CCCC(=O)O)[C@@H]1C2 [IB-a′-2]	37 nM	–
CC1(C)[C@H]2C[C@H](C/C=C/CCCC(=O)O)[C@@H](NC(=O)c3csc4ccc(O)cc34)[C@@H]1C2 [IA-a-17, (5E)-7-[(1R,2R,3S,5S)-2-(5-hydroxybenzo[b]thiophen-3-yl-carbonylamino)-6,6-dimethylbicyclo[3.1.1]hept-3-yl]-5-heptenoic Acid]	32 nM	–

The remaining molecules from weak to strong by IC50 (PGD2 receptor), led by results:

IC50 (PGD2 receptor)	SMILES	further results
1.2 nM	CC1(C)[C@H]2C[C@H](C/C=C/CCCC(=O)O)[C@@H](NC(=O)c3csc4ccc(O)cc34)[C@@H]1C2 (single isomer, unassigned) [IA-a-18]	–
1 nM	CC1(C)[C@H]2C[C@@H](C/C=C/CCCC(=O)O)[C@@H](NC(=O)c3csc4ccc(O)cc34)[C@@H]1C2 [IA-c-2]	–
0.27 nM	CC1(C)[C@H]2C[C@H](C/C=C\CCCC(=O)O)[C@@H](NC(=O)c3csc4ccc(F)cc34)[C@@H]1C2 [IA-a-11]	–
